What was measured:
Type in all cases: cell-based
[1] = tested on: CPT1A gene expression in Huh-7 cells; assay: Huh-7 differential gene expression, CPT1A RT-qPCR (Assay 3); conditions: Homo sapiens, Huh-7, 24 h, Table 6, Huh-7 cells, CPT1A, 24 hr treatment; for EC50: read-out: Activity category Assay 3 EC50; for Emax: read-out: Activity category Assay 3 Emax
Summary of the method: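 Huh-7 cells in DMEM with 10% resin-stripped (TH-depleted) FBS were treated 24 hr with compounds at 0.1% DMSO, in biological duplicates. CPT1A mRNA was measured by TaqMan RT-qPCR against ACTB and TFG and quantified by 2-ΔΔCt. EC50 and Emax came from four-parameter logistic fits with no top constraint.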

[2] = molecular target: T1, THR beta (Homo sapiens, UniProt P10828); assay: HEK293T THR beta/RXR luciferase reporter assay (Assay 2); conditions: for Emax: HEK-293T, Table 5, Assay 2, THRβ, read-out: Activity category Assay 2 THRβ (Emax); for EC50: THR-beta, HEK293T reporter assay, read-out: Activity category Assay 2 (EC50, THR-beta agonist)
T1 construct: expressed in transfected cells; host or cells: HEK293T (ATCC CRL-3216)
T1 sequence (P10828 1-461): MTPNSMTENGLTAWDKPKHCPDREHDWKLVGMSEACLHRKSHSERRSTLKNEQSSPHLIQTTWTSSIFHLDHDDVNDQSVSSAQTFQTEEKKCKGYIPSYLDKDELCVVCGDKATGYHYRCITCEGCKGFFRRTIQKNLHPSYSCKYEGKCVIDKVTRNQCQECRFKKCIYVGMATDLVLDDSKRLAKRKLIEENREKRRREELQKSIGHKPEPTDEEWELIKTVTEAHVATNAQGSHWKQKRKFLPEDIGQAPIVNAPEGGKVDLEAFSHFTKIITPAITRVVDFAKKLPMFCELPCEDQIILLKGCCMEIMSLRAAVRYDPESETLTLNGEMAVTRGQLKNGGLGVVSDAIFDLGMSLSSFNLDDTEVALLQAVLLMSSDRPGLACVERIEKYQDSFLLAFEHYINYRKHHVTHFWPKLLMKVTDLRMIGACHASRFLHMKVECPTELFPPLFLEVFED
T1 sequence (P19793 1-462 partner): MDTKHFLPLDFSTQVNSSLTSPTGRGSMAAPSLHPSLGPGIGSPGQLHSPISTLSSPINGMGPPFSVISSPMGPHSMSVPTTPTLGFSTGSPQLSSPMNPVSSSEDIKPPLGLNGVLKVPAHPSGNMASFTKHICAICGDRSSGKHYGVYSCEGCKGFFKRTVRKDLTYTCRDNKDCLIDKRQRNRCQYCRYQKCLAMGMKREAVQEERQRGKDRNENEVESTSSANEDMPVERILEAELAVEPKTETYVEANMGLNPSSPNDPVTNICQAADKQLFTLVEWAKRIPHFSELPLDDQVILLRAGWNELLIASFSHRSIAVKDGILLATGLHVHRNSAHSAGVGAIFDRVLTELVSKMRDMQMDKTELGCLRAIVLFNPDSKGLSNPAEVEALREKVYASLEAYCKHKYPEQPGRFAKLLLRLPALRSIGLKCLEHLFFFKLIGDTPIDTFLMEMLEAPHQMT
Summary of the method: (§1)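 Compounds tested as ten-point five-fold dilution series for 18-24 h on transiently transfected HEK293T cells carrying TRE-driven luciferase plus RXR and either THR alpha or beta expression plasmids. Read-out by One-Glo luminescence, expressed as percent agonism relative to negative and positive controls.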

[3] = molecular target: T2, THR alpha (Homo sapiens, UniProt P10827); assay: HEK293T THR alpha/RXR luciferase reporter assay (Assay 2); conditions: Assay 2; for Emax: HEK-293T, Table 5, THRα, read-out: Activity category Assay 2 THRα (Emax); for EC50: Table 4, THR-alpha, read-out: Activity category Assay 2 (EC50, THR-alpha agonist activity)
T2 construct: expressed in transfected cells; host or cells: HEK293T (ATCC CRL-3216)
T2 sequence (P10827 1-410 isoform P10827-2): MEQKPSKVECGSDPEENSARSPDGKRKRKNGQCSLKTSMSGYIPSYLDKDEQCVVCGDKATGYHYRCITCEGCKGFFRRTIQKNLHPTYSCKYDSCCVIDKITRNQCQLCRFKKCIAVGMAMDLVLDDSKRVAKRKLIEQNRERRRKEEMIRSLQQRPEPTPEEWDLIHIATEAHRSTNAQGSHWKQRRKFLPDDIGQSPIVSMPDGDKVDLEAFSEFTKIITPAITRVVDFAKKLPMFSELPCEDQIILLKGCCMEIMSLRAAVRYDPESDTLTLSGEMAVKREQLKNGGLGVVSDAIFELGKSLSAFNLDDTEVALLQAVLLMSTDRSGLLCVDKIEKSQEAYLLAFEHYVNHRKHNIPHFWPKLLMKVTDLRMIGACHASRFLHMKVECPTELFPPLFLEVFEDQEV
T2 sequence (P19793 1-462 partner): T1 sequence (P19793 1-462 partner)
Summary of the method: as §1

Structure (SMILES)	EC50 [1] [nM]	Emax [1] [%]	Emax [2] [%]	EC50 [2] [nM]	Emax [3] [%]	EC50 [3] [nM]
Nc1nn(-c2cc(Cl)c(Oc3cc(C45CCC(C4)C5)c(=O)[nH]n3)c(Cl)c2)c(=O)[nH]c1=O [Compound 101]	< 100	< 50	50 to 75	50 to 250	< 50	50 to 250
Cc1ccc(-c2cc(Oc3c(Cl)cc(-n4nc(N)c(=O)[nH]c4=O)cc3Cl)n[nH]c2=O)cc1C [Compound 112]	100 to 1000	> 75	< 50	50 to 250	< 50	1000 to 10000
Nc1nn(-c2cc(Cl)c(Oc3cc(-c4ccc5c(c4)CCCO5)c(=O)[nH]n3)c(Cl)c2)c(=O)[nH]c1=O [Compound 114]	100 to 1000	50 to 75	< 50	250 to 1000	< 50	> 10000
Nc1nn(-c2cc(Cl)c(Oc3n[nH]c(=O)cc3-c3ccc4c(c3)CCCO4)c(Cl)c2)c(=O)[nH]c1=O [Compound 115]	> 100	> 75	< 50	250 to 1000	< 50	> 10000
CC(C)Nc1n[nH]c2ccc(Oc3c(Cl)cc(-n4nc(C#N)c(=O)[nH]c4=O)cc3Cl)cc12 [Compound 145, 2-(3,5-dichloro-4-((3-(isopropylamino)-1H-indazol-5-yl)oxy)phenyl)-3,5-dioxo-2,3,4,5-tetrahydro-1,2,4-triazine-6-carbonitrile]	100 to 1000	> 75	50 to 75	1000 to 10000	50 to 75	1000 to 10000
CC(C)c1cc(=O)[nH]c2ccc(Oc3c(Cl)cc(-n4nc(N)c(=O)[nH]c4=O)cc3Cl)cc12 [Compound 146, 6-amino-2-[3,5-dichloro-4-[(4-isopropyl-2-oxo-1H-quinolin-6-yl)oxy]phenyl]-1,2,4-triazine-3,5-dione]	100 to 1000	> 75	50 to 75	< 50	< 50	50 to 250
Cc1cc(-n2nc(C#N)c(=O)[nH]c2=O)cc(C)c1Cc1ccc2c(c1)C1(CC1)C(=O)N2 [Compound 148, 2-(3,5-dimethyl-4-((2′-oxospiro[cyclopropane-1,3′-indolin]-5′-yl)methyl)phenyl)-3,5-dioxo-2,3,4,5-tetrahydro-1,2,4-triazine-6-carbonitrile]	100 to 1000	> 75	50 to 75	1000 to 10000	< 50	1000 to 10000
Cc1cc(-n2nc(N)c(=O)[nH]c2=O)cc(C)c1Cc1ccc2c(c1)C1(CC1)C(=O)N2 [Compound 151, 6-Amino-2-(3,5-dimethyl-4-((2′-oxospiro[cyclopropane-1,3′-indolin]-5′-yl)methyl)phenyl)-1,2,4-triazine-3,5(2H,4H)-dione]	< 100	> 75	50 to 75	< 50	50 to 75	< 50
Cc1cc(-n2nc(N)c(=O)[nH]c2=O)cc(C)c1Cc1cc2c(C(C)C)c[nH]c2cn1 [Compound 157, 6-amino-2-[4-[(3-isopropyl-1H-pyrrolo[2,3-c]pyridin-5-yl)methyl]-3,5-dimethyl-phenyl]-1,2,4-triazine-3,5-dione]	< 100	> 75	> 75	< 50	50 to 75	50 to 250
Nc1nn(-c2cc(Cl)c(Oc3cc(C4Cc5ccccc54)c(=O)[nH]n3)c(Cl)c2)c(=O)[nH]c1=O (stereo not drawn) [Compound 158]	> 100	< 50	50 to 75	50 to 250	< 50	1000 to 10000

— patent US12180192B2, “Modulators of THR-β and methods of use thereof” (ALIGOS THERAPEUTICS, INC., priority 2019, dated 2024)
